Measured values published in patent publication EP2797914B1, “NIFURATEL SULFOXIDE FOR USE IN THE TREATMENT OF BACTERIAL INFECTIONS” (Polichem SA, priority 2011, dated 2013).
Converted amounts (≈) assume the structure as drawn. Like-named read-outs stand apart in the source and are kept apart here.

Tests used:
[1] = system: Lactobacillus iners ATCC 55195; assay: MIC by broth microdilution method (CLSI M07-A8 / M11-A7); type: cell-based
Protocol: The in vitro activity of nifuratel sulfoxide racemate, R-nifuratel sulfoxide and S-nifuratel sulfoxide was tested on a panel of bacteria, which included both Gram positive and Gram negative bacteria. The minimum inhibitory concentrations (MICs) of the compounds were determined by the broth microdilution method or by the agar dilution method, according to the National Committee for Clinical Laboratory Standards (CLSI) reference methods […]-A8 and M11-A7.

[2] = system: Escherichia coli ATCC 11775; assay: MIC by broth microdilution method (CLSI M07-A8 / M11-A7); efficiency coefficient derived; type: cell-based
Protocol: (§1) The in vitro activity of nifuratel sulfoxide racemate, R-nifuratel sulfoxide and S-nifuratel sulfoxide was tested on a panel of bacteria, which included both Gram positive and Gram negative bacteria.
(§2) The minimum inhibitory concentrations (MICs) of the compounds were determined by the broth microdilution method or by the agar dilution method, according to the National Committee for Clinical Laboratory Standards (CLSI) reference methods M07-A8 and M11-A7.
(§3) The efficiency coefficient (EC) of nifuratel sulfoxide vs. nifuratel was calculated for each tested strain as follows: EC = relative oral bioavailability*[…] [formula]
(§4) Where: • nifS = nifuratel sulfoxide • nif = nifuratel • EC = 1 is indicative of equivalent efficiency between nifuratel sulfoxide and nifuratel. • EC < 1 is indicative of a lower efficiency of nifuratel sulfoxide vs. nifuratel • EC > 1 is indicative of a higher efficiency of nifS vs. nif

[3] = system: Klebsiella pneumonia ATCC 10031; assay: as above; type: cell-based
Protocol: as §1, §2, §3, §4

[4] = system: Micrococcus pyogenes ATCC 11631; assay: as above; type: cell-based
Protocol: as §1, §2, §3, §4

[5] = system: Neisseria gonorrhoeae ATCC 19424; assay: as above; type: cell-based
Protocol: as §1, §2, §3, §4

[6] = system: Proteus mirabilis ATCC 14153; assay: as above; type: cell-based
Protocol: as §1, §2, §3, §4

[7] = system: Salmonella paratyphi B ATCC 10719; assay: as above; type: cell-based
Protocol: as §1, §2, §3, §4

[8] = system: Salmonella typhimurium ATCC 14028; assay: as above; type: cell-based
Protocol: as §1, §2, §3, §4

[9] = system: Shigella sonnei ATCC 11060; assay: as above; type: cell-based
Protocol: as §1, §2, §3, §4

[10] = system: Staphylococcus aureus (MRSA); assay: as above; type: cell-based
Protocol: as §1, §2, §3, §4

[11] = system: Atopobium vaginae; assay: MIC by agar dilution method (CLSI M07-A8 / M11-A7); efficiency coefficient derived; type: cell-based; conditions: for in vitro antimicrobial activity (in words): tested Atopobium vaginae strains
Protocol: as §1, §2, §3, §4

[12] = system: Gardnerella vaginalis; assay: as above; type: cell-based; conditions: for in vitro antimicrobial activity (in words): tested Gardnerella vaginalis strains
Protocol: as §1, §2, §3, §4

[13] = Rat pharmacokinetics in plasma, non compartmental analysis; type: in vivo, male rats; conditions: rat, in vivo
Protocol: The pharmacokinetic profiles in plasma of nifuratel and nifuratel sulfoxide were tested after intravenous administration (2mg/kg) and oral gavage (15mg/kg) in male rats. […]

[14] = Metabolic profiling of nifuratel in human urines by LC/MS/MS after oral administration; type: in vivo; conditions: in vivo, po
Protocol: As a matter of fact, metabolic profiling of nifuratel, following oral administration, was assessed in human urines by liquid chromatography/tandem mass spectrometry (LC/MS/MS).
More in details, urines of two subjects treated orally with nifuratel were collected at the following time-points: pre-dose, 0-4, 4-8, 8-12, 12-24, 24-36 and 36-48 h after treatment.
Nifuratel was not detected in any of the urine samples. […] Based on such a discovery, the applicant has performed both in vitro and in vivo tests in order to establish whether nifuratel sulfoxide is endowed with anti-bacterial activity.

[15] = broth microdilution, Lactobacillus iners ATCC 55195
[16] = broth microdilution, Escherichia coli ATCC 11775
[17] = broth microdilution, Klebsiella pneumonia ATCC 10031
[18] = broth microdilution, Micrococcus pyogenes ATCC 11631
[19] = broth microdilution, Neisseria gonorrhoeae ATCC 19424
[20] = broth microdilution, Proteus mirabilis ATCC 14153
[21] = broth microdilution, Salmonella typhimurium ATCC 14028
[22] = broth microdilution, Staphylococcus aureus (MRSA)
[23] = agar dilution, strain CCUG 38953
[24] = agar dilution, strain CCUG 39382
[25] = agar dilution, strain CCUG 42099
[26] = agar dilution, strain CCUG 43049
[27] = agar dilution, strain CCUG 44061
[28] = agar dilution, strain CCUG 44156
[29] = agar dilution, strain CCUG 48515
[30] = agar dilution, strain CCUG 55226
[31] = agar dilution, strain CCUG 55227
[32] = agar dilution, strain ATCC 14018

## CSCC1CN(/N=C/c2ccc([N+](=O)[O-])o2)C(=O)O1 (stereo not drawn) [Nifuratel]
[1]; Lactobacillus iners, ATCC55195
  MIC: 16 µg/mL (≈ 56.1 µM)
[2]; Escherichia coli, ATCC11775
  MIC: 1 µg/mL (≈ 3.51 µM)
[3]; Klebsiella pneumoniae, ATCC10031
  MIC: 2 µg/mL (≈ 7.01 µM)
[4]; Staphylococcus aureus, ATCC11631
  MIC: 1 µg/mL (≈ 3.51 µM)
[5]; Neisseria gonorrhoeae, ATCC19424
  MIC: 0.25 µg/mL (≈ 0.876 µM)
[6]; Proteus mirabilis, ATCC14153
  MIC: 8 µg/mL (≈ 28 µM)
[7]; Salmonella enterica, read-out: MIC
  MIC: 2 µg/mL (≈ 7.01 µM)
[8]; Salmonella enterica
  MIC: 4 µg/mL (≈ 14 µM)
[9]; ATCC11060, read-out: MIC
  MIC: 1 µg/mL (≈ 3.51 µM)
[10]; Staphylococcus aureus, MRSA
  MIC: 2 µg/mL (≈ 7.01 µM)
[11]; Fannyhessea vaginae, CCUG38953
  MIC: 0.125 µg/mL (≈ 0.438 µM)
[11]; Fannyhessea vaginae, CCUG39382
  MIC: 0.25 µg/mL (≈ 0.876 µM)
[11]; Fannyhessea vaginae, CCUG42099
  MIC: 0.5 µg/mL (≈ 1.75 µM)
[11]; Fannyhessea vaginae, CCUG43049
  MIC: 0.25 µg/mL (≈ 0.876 µM)
[11]; Fannyhessea vaginae, CCUG44061
  MIC: 0.5 µg/mL (≈ 1.75 µM)
[11]; Fannyhessea vaginae, CCUG44156
  MIC: 0.5 µg/mL (≈ 1.75 µM)
[11]; Fannyhessea vaginae, CCUG48515
  MIC: 1 µg/mL (≈ 3.51 µM)
[11]; Fannyhessea vaginae, CCUG55226
  MIC: 1 µg/mL (≈ 3.51 µM)
[11]; Fannyhessea vaginae, CCUG55227
  MIC: 0.25 µg/mL (≈ 0.876 µM)
[12]; Gardnerella vaginalis, ATCC14018, agar dilution, strain ATCC 14018
  MIC: 2 µg/mL (≈ 7.01 µM)
[12]; Gardnerella vaginalis, agar dilution, strain C2
  MIC: 8 µg/mL (≈ 28 µM)
[12]; Gardnerella vaginalis, agar dilution, strain D2
  MIC: 4 µg/mL (≈ 14 µM)
[12]; Gardnerella vaginalis, agar dilution, strain E2
  MIC: 2 µg/mL (≈ 7.01 µM)
[12]; Gardnerella vaginalis, agar dilution, strain G2
  MIC: 2 µg/mL (≈ 7.01 µM)
[12]; Gardnerella vaginalis, agar dilution, strain H2
  MIC: 1 µg/mL (≈ 3.51 µM)
[12]; Gardnerella vaginalis, agar dilution, strain J2
  MIC: 2 µg/mL (≈ 7.01 µM)
[12]; Gardnerella vaginalis, agar dilution, strain K2
  MIC: 4 µg/mL (≈ 14 µM)
[13]; male, iv, 2 mg/kg
  C0: 798 ng/mL
  T1/7: 24 min
  Tlast: 120 min
  concentration at 120 min: 5 ng/mL
[13]; male, po, 15 mg/kg
  Cmax: 8 ng/mL
  Tmax: 30 min
[13]; iv, 2 mg/kg
  Vss: 4.5 kg⁻¹
[14]
  detection of parent compound in urine samples: not detected

## C[S+]([O-])CC1CN(N=Cc2ccc([N+](=O)[O-])o2)C(=O)O1 (mixture of isomers) [S-Nifuratel sulfoxide, (S)-nifuratel sulfoxide]
[1]; [15]
  MIC: 32 µg/mL
[2]; [16]
  MIC: 16 µg/mL
[3]; [17]
  MIC: 16 µg/mL
[4]; [18]
  MIC: 64 µg/mL
[5]; [19]
  MIC: 2 µg/mL
[6]; [20]
  MIC: 4 µg/mL
[7]
  MIC: 8 µg/mL
[8]; [21]
  MIC: 16 µg/mL
[9]
  MIC: 16 µg/mL
[10]; [22]
  MIC: 16 µg/mL
[11]; [23]
  MIC: 2 µg/mL
[11]; [24]
  MIC: 2 µg/mL
[11]; [25]
  MIC: 16 µg/mL
[11]; [26]
  MIC: 8 µg/mL
[11]; [27]
  MIC: 1 µg/mL
[11]; [28]
  MIC: 2 µg/mL
[11]; [29]
  MIC: 2 µg/mL
[11]; [30]
  MIC: 8 µg/mL
[11]; [31]
  MIC: 4 µg/mL
[11]
  in vitro antimicrobial activity (in words): good activity
[12]; [32]
  MIC: 16 µg/mL
[12]; agar dilution, strain C2
  MIC: 16 µg/mL
[12]; agar dilution, strain D2
  MIC: 16 µg/mL
[12]; agar dilution, strain E2
  MIC: 32 µg/mL
[12]; agar dilution, strain G2
  MIC: 16 µg/mL
[12]; agar dilution, strain H2
  MIC: 8 µg/mL
[12]; agar dilution, strain J2
  MIC: 16 µg/mL
[12]; agar dilution, strain K2
  MIC: 32 µg/mL
[12]
  in vitro antimicrobial activity (in words): good activity

## C[S+]([O-])CC1CN(N=Cc2ccc([N+](=O)[O-])o2)C(=O)O1 (mixture of isomers) [R-Nifuratel sulfoxide, (R)-nifuratel sulfoxide]
[1]; [15]
  MIC: 16 µg/mL
[2]; [16]
  MIC: 16 µg/mL
[3]; [17]
  MIC: 16 µg/mL
[4]; [18]
  MIC: 32 µg/mL
[5]; [19]
  MIC: 2 µg/mL
[6]; [20]
  MIC: 8 µg/mL
[7]
  MIC: 16 µg/mL
[8]; [21]
  MIC: 16 µg/mL
[9]
  MIC: 16 µg/mL
[10]; [22]
  MIC: 16 µg/mL
[11]; [23]
  MIC: 1 µg/mL
[11]; [24]
  MIC: 1 µg/mL
[11]; [25]
  MIC: 1 µg/mL
[11]; [26]
  MIC: 4 µg/mL
[11]; [27]
  MIC: 1 µg/mL
[11]; [28]
  MIC: 2 µg/mL
[11]; [29]
  MIC: 2 µg/mL
[11]; [30]
  MIC: 2 µg/mL
[11]; [31]
  MIC: 1 µg/mL
[11]
  in vitro antimicrobial activity (in words): good activity
[12]; [32]
  MIC: 8 µg/mL
[12]; agar dilution, strain C2
  MIC: 32 µg/mL
[12]; agar dilution, strain D2
  MIC: 64 µg/mL
[12]; agar dilution, strain E2
  MIC: 64 µg/mL
[12]; agar dilution, strain G2
  MIC: 64 µg/mL
[12]; agar dilution, strain H2
  MIC: 16 µg/mL
[12]; agar dilution, strain J2
  MIC: 32 µg/mL
[12]; agar dilution, strain K2
  MIC: 64 µg/mL
[12]
  in vitro antimicrobial activity (in words): good activity
